The values below come from ChEMBL document CHEMBL5500429, “ERAP Inhibitors in Autoimmunity and Immuno-Oncology: Medicinal Chemistry Insights” (J Med Chem, 2024).

Test [1] deals with T1, Endoplasmic reticulum aminopeptidase 1 (Homo sapiens, UniProt Q9NZ08). Nature of the test: Inhibition of C-terminal Hexa-histidine-tagged human recombinant ERAP1 expressed in Sf9 cells using L-AMC as substrate incubated for 15 mins by Michaelis-Menten analysis.
A short description of test [2]: Inhibition of C-terminal Hexa-histidine-tagged human recombinant IRAP expressed in Sf9 cells using R-AMC as substrate incubated for 15 mins by Michaelis-Menten analysis.
In test [3] the target is T1, Endoplasmic reticulum aminopeptidase 1. Description: Inhibition of ERAP1 (unknown origin) using L-AMC as substrate.
The target in test [4] is T2, Endoplasmic reticulum aminopeptidase 2 (Homo sapiens, UniProt Q6P179). Nature of the test: Inhibition of ERAP2 (unknown origin) using R-AMC as substrate.
T2 sequence (Q6P179 whole entry): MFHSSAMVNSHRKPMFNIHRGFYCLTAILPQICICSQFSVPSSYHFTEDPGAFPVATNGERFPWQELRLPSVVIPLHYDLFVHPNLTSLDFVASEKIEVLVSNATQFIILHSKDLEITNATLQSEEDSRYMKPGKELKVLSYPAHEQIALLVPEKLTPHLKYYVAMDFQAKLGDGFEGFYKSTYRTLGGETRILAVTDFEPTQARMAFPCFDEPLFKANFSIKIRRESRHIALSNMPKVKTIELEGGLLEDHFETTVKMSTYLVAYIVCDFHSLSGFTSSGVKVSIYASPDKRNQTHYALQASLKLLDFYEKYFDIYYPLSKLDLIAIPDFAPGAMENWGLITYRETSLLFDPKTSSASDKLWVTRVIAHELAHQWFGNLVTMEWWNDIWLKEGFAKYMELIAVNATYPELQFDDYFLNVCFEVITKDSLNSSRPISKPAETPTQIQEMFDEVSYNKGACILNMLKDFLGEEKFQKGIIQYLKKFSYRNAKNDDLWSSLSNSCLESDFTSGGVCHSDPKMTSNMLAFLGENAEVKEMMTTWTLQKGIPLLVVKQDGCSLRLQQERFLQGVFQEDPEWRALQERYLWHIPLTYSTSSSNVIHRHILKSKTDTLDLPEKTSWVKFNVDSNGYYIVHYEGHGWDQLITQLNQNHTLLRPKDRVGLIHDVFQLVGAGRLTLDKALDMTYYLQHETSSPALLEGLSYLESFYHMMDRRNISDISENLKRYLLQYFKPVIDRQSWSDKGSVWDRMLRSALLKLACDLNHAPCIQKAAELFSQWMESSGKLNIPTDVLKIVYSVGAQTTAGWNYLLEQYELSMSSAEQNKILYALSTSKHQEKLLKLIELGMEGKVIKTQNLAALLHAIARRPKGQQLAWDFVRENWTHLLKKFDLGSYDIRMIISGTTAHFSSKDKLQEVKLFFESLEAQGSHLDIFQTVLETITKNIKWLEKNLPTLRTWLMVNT
The target in test [5] is T2, Endoplasmic reticulum aminopeptidase 2. Description: Inhibition of C-terminal Hexa-histidine-tagged human recombinant ERAP2 expressed in Sf9 cells using R-AMC as substrate incubated for 15 mins by Michaelis-Menten analysis.
Test [6] deals with Cytosol aminopeptidase (Homo sapiens, UniProt P28838). Description: Inhibition of human recombinant Leucine aminopeptidase 3.
Cytosol aminopeptidase, sequence (P28838 whole entry): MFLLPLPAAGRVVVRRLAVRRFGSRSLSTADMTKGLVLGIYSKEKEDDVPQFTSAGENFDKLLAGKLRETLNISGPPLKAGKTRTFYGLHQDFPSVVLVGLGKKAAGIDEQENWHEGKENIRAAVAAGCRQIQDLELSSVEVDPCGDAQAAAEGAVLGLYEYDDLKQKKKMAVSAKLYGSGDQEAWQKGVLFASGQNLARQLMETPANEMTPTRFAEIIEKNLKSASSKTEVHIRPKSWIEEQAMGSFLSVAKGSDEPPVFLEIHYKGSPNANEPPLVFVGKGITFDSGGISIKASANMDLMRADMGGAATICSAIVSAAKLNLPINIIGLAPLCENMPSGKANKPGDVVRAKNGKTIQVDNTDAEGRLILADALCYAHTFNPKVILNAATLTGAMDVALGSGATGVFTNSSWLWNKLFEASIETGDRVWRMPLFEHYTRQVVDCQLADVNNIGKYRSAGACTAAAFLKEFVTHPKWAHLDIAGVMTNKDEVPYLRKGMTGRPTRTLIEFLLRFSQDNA
Test [7] has as its target Aminopeptidase N (Homo sapiens, UniProt P15144). Description: Inhibition of FLAG-tagged human recombinant Aminopeptidase N.
Test [8] concerns the target T3, Leukotriene A-4 hydrolase (Homo sapiens, UniProt P09960).
T3 sequence (P09960 whole entry): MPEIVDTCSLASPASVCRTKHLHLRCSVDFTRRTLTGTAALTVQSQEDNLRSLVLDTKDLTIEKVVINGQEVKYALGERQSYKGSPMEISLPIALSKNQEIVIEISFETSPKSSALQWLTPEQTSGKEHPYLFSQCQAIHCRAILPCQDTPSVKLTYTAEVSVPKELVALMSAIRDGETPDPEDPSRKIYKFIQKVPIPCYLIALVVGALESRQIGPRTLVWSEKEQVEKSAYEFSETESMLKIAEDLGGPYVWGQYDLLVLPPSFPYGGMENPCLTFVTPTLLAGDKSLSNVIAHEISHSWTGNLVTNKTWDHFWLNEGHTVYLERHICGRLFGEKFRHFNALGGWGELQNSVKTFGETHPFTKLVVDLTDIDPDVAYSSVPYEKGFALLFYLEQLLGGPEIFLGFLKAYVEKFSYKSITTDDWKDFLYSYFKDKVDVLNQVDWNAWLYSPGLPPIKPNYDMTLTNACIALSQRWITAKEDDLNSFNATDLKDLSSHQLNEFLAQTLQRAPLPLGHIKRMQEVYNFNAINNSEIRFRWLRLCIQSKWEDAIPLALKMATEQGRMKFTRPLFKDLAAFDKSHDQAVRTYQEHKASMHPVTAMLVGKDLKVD
Nature of the test: Inhibition of full length human recombinant Leukotriene A-4 hydrolase expressed in baculovirus infected Insect cells. The arrangement: species or system Insect cell.

Usually IC50 stands for the point on the concentration scale where inhibition reaches its midpoint.

T1 sequence (Q9NZ08 whole entry): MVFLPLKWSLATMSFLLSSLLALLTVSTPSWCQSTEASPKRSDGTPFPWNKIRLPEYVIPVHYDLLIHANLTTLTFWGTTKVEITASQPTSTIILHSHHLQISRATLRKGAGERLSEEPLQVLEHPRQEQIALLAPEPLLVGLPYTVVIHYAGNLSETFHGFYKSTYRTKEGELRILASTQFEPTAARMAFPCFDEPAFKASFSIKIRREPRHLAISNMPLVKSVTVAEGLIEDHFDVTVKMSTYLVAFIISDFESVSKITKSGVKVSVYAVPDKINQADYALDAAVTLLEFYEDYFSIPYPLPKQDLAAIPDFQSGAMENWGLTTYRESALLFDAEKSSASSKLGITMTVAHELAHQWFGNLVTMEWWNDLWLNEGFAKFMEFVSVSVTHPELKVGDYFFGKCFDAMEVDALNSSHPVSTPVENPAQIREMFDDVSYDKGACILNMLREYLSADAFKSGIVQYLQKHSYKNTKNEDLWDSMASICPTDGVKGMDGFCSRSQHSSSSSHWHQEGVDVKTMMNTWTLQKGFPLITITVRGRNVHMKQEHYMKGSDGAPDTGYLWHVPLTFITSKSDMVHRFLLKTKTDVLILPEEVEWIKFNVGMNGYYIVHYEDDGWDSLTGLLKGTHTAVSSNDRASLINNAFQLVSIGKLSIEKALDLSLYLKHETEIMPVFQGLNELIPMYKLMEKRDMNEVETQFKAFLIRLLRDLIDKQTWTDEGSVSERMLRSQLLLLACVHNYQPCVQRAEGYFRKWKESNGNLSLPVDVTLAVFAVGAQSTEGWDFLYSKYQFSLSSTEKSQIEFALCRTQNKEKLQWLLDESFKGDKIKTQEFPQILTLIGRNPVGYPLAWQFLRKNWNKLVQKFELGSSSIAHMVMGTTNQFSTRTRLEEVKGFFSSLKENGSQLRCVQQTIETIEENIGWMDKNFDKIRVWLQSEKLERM
Aminopeptidase N, sequence (P15144 whole entry): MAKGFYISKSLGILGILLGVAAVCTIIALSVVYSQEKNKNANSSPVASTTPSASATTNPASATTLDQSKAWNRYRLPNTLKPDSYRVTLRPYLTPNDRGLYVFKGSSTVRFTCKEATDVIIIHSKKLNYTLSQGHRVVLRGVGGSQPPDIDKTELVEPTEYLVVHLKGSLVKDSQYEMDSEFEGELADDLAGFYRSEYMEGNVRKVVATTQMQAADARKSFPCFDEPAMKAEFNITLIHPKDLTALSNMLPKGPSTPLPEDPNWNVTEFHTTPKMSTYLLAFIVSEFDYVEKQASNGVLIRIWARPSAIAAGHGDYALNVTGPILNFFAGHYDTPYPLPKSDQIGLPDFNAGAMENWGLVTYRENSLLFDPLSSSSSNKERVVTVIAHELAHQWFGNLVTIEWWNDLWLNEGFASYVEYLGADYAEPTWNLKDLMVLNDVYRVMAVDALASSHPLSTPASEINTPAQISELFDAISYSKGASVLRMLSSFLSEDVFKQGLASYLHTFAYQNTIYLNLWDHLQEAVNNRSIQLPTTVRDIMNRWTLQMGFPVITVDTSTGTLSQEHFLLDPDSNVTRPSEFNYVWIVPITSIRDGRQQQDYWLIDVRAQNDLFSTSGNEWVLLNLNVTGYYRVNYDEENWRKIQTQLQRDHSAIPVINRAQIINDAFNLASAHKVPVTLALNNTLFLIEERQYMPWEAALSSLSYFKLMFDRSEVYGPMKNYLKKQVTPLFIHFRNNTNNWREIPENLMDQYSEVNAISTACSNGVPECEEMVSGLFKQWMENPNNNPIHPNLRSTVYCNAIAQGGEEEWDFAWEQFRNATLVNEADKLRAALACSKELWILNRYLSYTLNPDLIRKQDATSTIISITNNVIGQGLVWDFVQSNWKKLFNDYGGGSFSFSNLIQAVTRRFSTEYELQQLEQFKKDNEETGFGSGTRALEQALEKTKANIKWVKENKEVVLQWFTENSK

In the case of `CC(C)C[C@H](NC(=O)[C@@H](O)[C@H](N)Cc1ccccc1)C(=O)O` [UBENIMEX], the IC50 in test [1] was 11 µM; in test [2], over 100 µM.

`O=C(NO)[C@H](Cc1ccc(Oc2ccccc2)cc1)n1cc(CNS(=O)(=O)c2ccc(-c3ccccn3)s2)nn1`: the IC50 in test [3] was over 100 µM.

With `O=C(C[C@H](Cc1ccc(O)cc1)n1nncc1CNS(=O)(=O)c1ccc(-c2ccccn2)s1)NO`, in test [3], the IC50 is over 100 µM.

Regarding `COc1ccc(C[C@@H](C(=O)NO)n2cc(CNS(=O)(=O)c3ccc(-c4ccccc4)s3)nn2)cc1`, in test [3], the IC50 was over 100 µM.

In turn, `COc1ccc(C(=O)O)cc1S(=O)(=O)Nc1ccc(C(F)(F)F)cc1N1CCCCC1` gave an IC50 in test [4] of 26.8 µM.

In the case of `CC(C)C[C@@H](N)[C@H](O)C(=O)N[C@H](C(=O)N[C@H](C(=O)N[C@@H](CC(=O)O)C(=O)O)C(C)C)C(C)C` [AMASTATIN], the IC50 in test [1] is 22 µM; in test [2], 25 µM.

For `CC(C)C[C@@H](C(=O)N[C@H](C(=O)OC1CCCC1)c1ccccc1)[C@H](O)C(=O)NO` [TOSEDOSTAT], the IC50 in test [1] was 18 µM; in test [5] it was 0.77 µM; in test [6] it was 0.005 µM; in test [7] it was 0.03 µM; in test [8], 0.008 µM.

Consider `CC(C)C[C@H](N)CS`, for which the IC50 in test [1] amounted to 0.11 µM; in test [5], 0.61 µM; in test [7] it was 0.008 µM.
